Where two headings read alike, the source gives them in different places.
How the values were obtained:
Format in all cases: cell-based
human TLR8 = molecular target: T1, human TLR8 (Homo sapiens, UniProt Q9NR97); assay: hTLR8 agonist reporter assay in HEK293 cells (NFκB-SEAP); conditions: for EC50: read-out: hTLR8 ED50
T1 construct: host or cells: HEK293
T1 sequence (Q9NR97 27-1041): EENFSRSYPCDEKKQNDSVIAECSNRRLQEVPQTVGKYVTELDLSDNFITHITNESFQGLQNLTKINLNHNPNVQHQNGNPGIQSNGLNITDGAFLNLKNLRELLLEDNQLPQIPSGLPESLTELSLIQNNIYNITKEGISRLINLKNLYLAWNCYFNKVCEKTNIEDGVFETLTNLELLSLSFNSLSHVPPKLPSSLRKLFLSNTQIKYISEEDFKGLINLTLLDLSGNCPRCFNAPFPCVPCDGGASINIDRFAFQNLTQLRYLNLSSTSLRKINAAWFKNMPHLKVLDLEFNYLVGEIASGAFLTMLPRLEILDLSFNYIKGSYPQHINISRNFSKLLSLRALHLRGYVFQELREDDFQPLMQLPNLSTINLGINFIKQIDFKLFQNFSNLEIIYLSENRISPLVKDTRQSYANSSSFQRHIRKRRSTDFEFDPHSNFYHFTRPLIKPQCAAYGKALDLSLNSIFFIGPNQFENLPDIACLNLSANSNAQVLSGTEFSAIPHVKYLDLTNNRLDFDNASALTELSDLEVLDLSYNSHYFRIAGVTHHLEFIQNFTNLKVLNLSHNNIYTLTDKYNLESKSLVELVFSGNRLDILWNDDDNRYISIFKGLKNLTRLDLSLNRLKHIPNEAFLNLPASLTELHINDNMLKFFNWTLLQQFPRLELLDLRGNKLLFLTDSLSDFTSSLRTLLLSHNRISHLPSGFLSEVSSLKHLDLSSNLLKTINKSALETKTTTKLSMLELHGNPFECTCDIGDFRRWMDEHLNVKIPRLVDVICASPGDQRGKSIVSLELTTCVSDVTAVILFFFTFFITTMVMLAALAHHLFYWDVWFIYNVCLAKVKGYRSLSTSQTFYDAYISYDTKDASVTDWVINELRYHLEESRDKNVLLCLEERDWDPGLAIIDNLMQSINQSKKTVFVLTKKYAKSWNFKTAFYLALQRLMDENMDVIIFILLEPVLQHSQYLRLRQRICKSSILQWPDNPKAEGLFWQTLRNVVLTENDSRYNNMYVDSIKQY
Method: Assay for hTLR7 and hTLR8 Agonist Activity in HEK-293 Cells
Determination of TLR agonist activity was performed using the HEK293 […]. This assay measures TLR7 and TLR8 selectivity and potency of the compounds tested. HEK293 cells expressing human TLR7 or TLR8 and NFκB responsive Secreted Embryonic Alkaline Phosphatase (SEAP) reporter gene were obtained from InvivoGen (San Diego, Calif.). These cells were maintained in culture media of Dulbecco's Modified Eagle Medium (DMEM) (Invitrogen, Grand Island, N.Y.), 10% Fetal Bovine Serum (FBS) (Sigma, St. Louis, Mo.) and selection antibiotics (Invitrogen, and Invivogen). HEK293 stably transfected with human TLR7 (hTLR7) or human TLR8 (hTLR8) were stimulated for 24 h with aqueous formulations of test compounds and culture supernatants were analyzed for NFκB activation using the colorimetric SEAP detection kit QuantBlue (InvivoGen).

[1] = tested on: human peripheral blood mononuclear cells (hPBMCs); assay: IFN-α induction in hPBMCs; conditions: 24 h
Method: (§1) Assays to Measure Cytokine Induction
(§2) Test compounds were evaluated for cytokine induction in human peripheral blood mononuclear cells (hPBMCs).
(§3) Primary human PBMCs were isolated from fresh blood from healthy donors via Ficoll gradient separation and plated at 0.5×10^6 cells/well in 96-well tissue culture plates (RPMI-1640 plus 10% FBS). hPBMCs were maintained with RPMI-1640 culture media (Invitrogen, Grand Island, N.Y.), antibiotics (Invitrogen) and 10% FBS (Sigma).
(§4) Incubation and Assays for IFN-γ, IFN-α and TNF-α
(§5) hPBMCs were stimulated for 24 h with aqueous formulations of test compounds. Culture supernatants were analyzed for TNF-α and IFN-γ induction using multiplex kits (FluoroKine multiplex kits from R&D Systems, Minneapolis, Minn.) and for IFN-α induction using human IFN-α VeriKine ELISA kit (Pestka Biomedical Laboratories, Inc., Piscataway, N.J.).

[2] = tested on: human peripheral blood mononuclear cells (hPBMCs); assay: IFN-γ induction in hPBMCs; conditions: 24 h
Method: as §1, §2, §3, §4, §5

[3] = tested on: human peripheral blood mononuclear cells (hPBMCs); assay: TNF-α induction in hPBMCs; conditions: 24 h
Method: as §1, §2, §3, §4, §5

EC50 (human TLR8; Table 1, FIG. 2, 24 h stimulation, aqueous formulations): 100 nM
EC50 (human TLR8; Table 2, FIG. 4, another occasion, * = only very low levels of NFKB activation were detected): 800 nM
hTLR8 agonist activity, in words (human TLR8; Table 3, FIG. 6): agonist of both TLR7 and TLR8
EC50 (human TLR8; Table 3, FIG. 6, another occasion, * = only very low levels of NFKB activation were detected): 590 nM
EC50 (human TLR8; Table 4, FIG. 8, another occasion): 710 nM
Compound: CCCCCCCC/C=C\CCCCCCCC(=O)OC[C@H](COP(=O)(O)OCCOc1ccc2c(c1)nc(N)c1nc(CCCC)n(CCO)c12)OC(=O)CCCCCCC/C=C\CCCCCCCC [Example 1]
hTLR8 agonist activity, in words (human TLR8; text on Table 1, FIG. 2): significantly more potent as an agonist of hTLR7 and hTLR8 than Comparative Example 2
hTLR8 agonist activity, in words (human TLR8; text on Table 2, FIG. 4): more active than Comparative Example 2 as an agonist of hTLR7 and hTLR8
IFN-α induction, in words ([1]; FIG. 10): equipotent at inducing IFN-α and these were more potent than Comparative Example 1 and Comparative Example 2 in this assay at a lower dose
IFN-α induction, in words ([1]; FIG. 12, another occasion): more potent at inducing IFN-α than Comparative Examples 1, 2 and 3
IFN-α induction, in words ([1]; FIG. 14, another occasion): very effective at inducing IFN-α
IFN-α induction, in words ([1]; FIG. 16, another occasion): good activity in inducing IFN-α
IFN-γ induction, in words ([2]; FIG. 9): more potent than Comparative Example 3 but less potent than Comparative Example 1
IFN-γ induction, in words ([2]; FIG. 11, another occasion): potent at inducing IFN-γ and each was more potent than Comparative Example 3
TNF-α induction, in words ([3]; FIG. 13): potent at inducing TNF-α
TNF-α induction, in words ([3]; FIG. 15, another occasion): effective at inducing TNF-α

— patent US11274115B2, “Imidazoquinoline derivatives and their use in therapy” (GLAXOSMITHKLINE BIOLOGICALS SA, priority 2016, dated 2022)
